Results on one compound are retold here after patent US20120301551A1, “COMPOUNDS AND COMPOSITIONS FOR TREATING NEURONAL DEATH OR NEUROLOGICAL DYSFUNCTION” (Neurotech Pharmaceuticals Co., Ltd., priority 2005, published 2012).

Holding throughout (type): in vivo, mouse
In experiment [1] the test system is APPswe/PS1deltaE9 double transgenic mice. Nature of the experiment: brain Aβ40/Aβ42 levels in APPswe/PS1deltaE9 double transgenic mice (ELISA). The following applies: 25 mg/kg/d chemical 01 or 62.5 mg/kg/day ibuprofen for 14.5 months. The method, then:
SDS-soluble/insoluble Aβ40 or Aβ42 levels were analyzed by colorimetric sandwich ELISA kit (BIOSOURCE, Camarillo, Calif.).
Background: ELISA stands for enzyme-linked immunosorbent assay.

Experiment [2] has the same test system. In words: Morris water maze in APPswe/PS1deltaE9 double transgenic mice. The following applies: 25 mg/kg/day chemical 01 or 62.5 mg/kg/day ibuprofen for 14.5 months (3~17.5 months). As to the method:
After administration of 14.5 months, the cognitive function was analyzed by Morris water maze test like example 10-3-1 (mean±SEM, n=3-5).
(§1) 17.5 month-old APPswe/PS1deltaE9 double transgenic mice were fed chow alone (saline only), or containing 25 mg/kg/day of chemical—01, for […] (3˜17.5 month).
The cognitive function was analyzed by Morris water maze test. Mice ware trained to perform a hidden platform task in the Morris water maze. The latency to find the platform was recorded for each mouse.

For experiment [3] the test system is unchanged. In words: open field activity in APPswe/PS1deltaE9 double transgenic mice. The following applies: 25 mg/kg/day chemical 01 or 62.5 mg/kg/day ibuprofen for 14.5 months (3~17.5 months). As to the method:
After administration of drug for 14.5 months, Open field activity test was performed to evaluate locomotor activity and exploratory behavior. 4×4 of scale marks were drawn in white acryl box having a size of 60 cm×60 cm×35 cm (width×length×height) to make sixteen squares. Four squares in the center became center zone and twelve squares around the center zone became peripary zone. Mice were laid into transparent acryl tube (diameter: about 3.5 inches) laid at the left corner of the acryl box for 30 seconds. After 30 seconds, acryl tube was removed to make mouse free. Experiment was once performed for each mouse for 5 minutes. The distance traveled in the open field was recorded (mean±SEM, n=3-5).
as §1
Open field activity was used to evaluate locomotor activity and exploratory behavior. The distance traveled in the open field was recorded and performance was analyzed after the testing took place.

On to `CC(C)Cc1ccc(C(C)C(=O)O)cc1` (stereo not drawn) [ibuprofen, reference compound], for which, in experiment [1], the “SDS-soluble/insoluble Aβ40 or Aβ42 levels, in words” value is listed as “did not reduce”. Further, in experiment [2], the “escape latency / cognitive function (Morris water maze)” value is reported as “did not improved cognitive function”. Also, the “open field activity (distance traveled)” value in experiment [3] is “non-significant trend”.
